From US20150119391A1, “ANTI-TUMORAL COMPOSITION COMPRISING THE COMPOUND 1-(6--1,3-BENZOTHIAZOL-2-YL)-3-(2-MORPHOLIN-4-YLETHYL)UREA” (SANOFI, priority 2012, published 2015)
In brackets after ≈: the same amount, converted by molar mass. Like-named read-outs stand apart in the source and are kept apart here.

Assays:
[1] = solubility in water; format: physicochemical
[2] = pKa (weak base); format: physicochemical
[3] = Biopharmaceutics Classification System class / permeability characteristics; format: physicochemical
[4] = system: human Met-driven tumor cell lines; experiment: in vitro anti-proliferative activity; format: cell-based; settings: (nM), Met-driven tumor cell lines exclusively
[5] = system: human Met-amplified models; experiment: cellular anti-tumor activity as a single agent; format: cell-based
[6] = stability to steam sterilization; format: physicochemical
Protocol: The concentrated pharmaceutical composition is prepared by usual methods for the preparation of aqueous liquid pharmaceutical composition. Generally, the process comprises a sterilization step, which is typically carried out by sterilizing filtration followed by aseptic filling.

In the case of O=C(NCCN1CCOCC1)Nc1nc2ccc(Sc3nnc4ccc(-c5ccc(F)cc5)nn34)cc2s1 [Compound A, 1-(6-{[6-(4-fluorophenyl)[1,2,4]triazolo[4,3-b]pyridazin-3-yl]sulfanyl}-1,3-benzothiazol-2-yl)-3-(2-morpholin-4-ylethyl)urea], the solubility [1] is reported as < 0.1 µg/mL, the solubility ([1]; aqueous buffer, above pH 5) is reported as < 0.1 µg/mL and the solubility ([1]; pH 1, simulated gastric fluid) is reported as ~90 µg/mL (≈ 163 µM). The solubility ([1]; pH 3, aqueous buffer) was ~20 µg/mL (≈ 36.3 µM), the pKa [2] was 6.4 and the permeability characteristics [3] was “poor”. For the same compound, the anti-proliferative activity [4] was “highly potent”, the cellular anti-tumor activity [5] was “highly potent” and the “chemical stability on steam sterilization” value [6] was “chemical degradation”.
